Experiments:
Format in all cases: biochemical
CDK2 = CDK2 (Homo sapiens, UniProt P24941); assay: CDK2 kinase inhibition assay; details: read-out: CDK2 median inhibitory concentration [IC50]
Procedure: CDK2/cyclin A kinase assays were carried out using a method modified from [Brown et al. (1999)] or by using the ADP-Glo assay (Promega) essentially as described by the manufacturers. A full description of the assay formats is provided in the Supplemental Experimental Procedures.

TESK1 = TESK1 (Homo sapiens, UniProt Q15569); assay: Dundee protein kinase screen; details: TESK1, 1µM; read-out: %Remaining activity at 1µM NU6300
Procedure, shortened: (§1)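 Selectivity panel of 131 protein kinases, inhibitor tested at a single concentration of 1 µM; values are % kinase activity remaining, mean of duplicates. Re-test of selected kinases used 0.5 µM in the standard format and again after a 4 hour pre-incubation with the inhibitor.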

PKBβ = PKBβ (Homo sapiens, UniProt P31751); assay: Dundee protein kinase screen; details: read-out: %Remaining activity at 1µM NU6300
Procedure, shortened: as §1

PDK1 = molecular target: T1, PDK1 (Homo sapiens, UniProt O15530); assay: Dundee protein kinase screen; details: PDK1, 1µM; read-out: %Remaining activity at 1µM NU6300
T1 sequence (O15530 1-556): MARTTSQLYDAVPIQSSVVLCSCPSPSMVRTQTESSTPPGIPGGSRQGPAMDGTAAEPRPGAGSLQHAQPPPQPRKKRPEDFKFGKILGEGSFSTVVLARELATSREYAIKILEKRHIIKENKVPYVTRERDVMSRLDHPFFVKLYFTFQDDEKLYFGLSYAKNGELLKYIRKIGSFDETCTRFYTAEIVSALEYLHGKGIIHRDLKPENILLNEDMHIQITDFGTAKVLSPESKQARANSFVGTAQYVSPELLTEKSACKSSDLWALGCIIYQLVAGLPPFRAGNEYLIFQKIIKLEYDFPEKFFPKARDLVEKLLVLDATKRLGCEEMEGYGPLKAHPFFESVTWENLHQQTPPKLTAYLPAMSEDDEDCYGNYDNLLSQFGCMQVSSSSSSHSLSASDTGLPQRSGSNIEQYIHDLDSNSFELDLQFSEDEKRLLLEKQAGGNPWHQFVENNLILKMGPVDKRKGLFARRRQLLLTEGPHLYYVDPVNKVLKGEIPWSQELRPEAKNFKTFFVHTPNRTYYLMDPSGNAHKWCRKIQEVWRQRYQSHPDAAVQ
Procedure, shortened: as §1

MNK2 = MNK2 (Homo sapiens, UniProt Q9HBH9); assay: Dundee protein kinase screen; details: MNK2, 1µM; read-out: %Remaining activity at 1µM NU6300
Procedure, shortened: as §1

PKBβ, sequence (P31751 whole entry): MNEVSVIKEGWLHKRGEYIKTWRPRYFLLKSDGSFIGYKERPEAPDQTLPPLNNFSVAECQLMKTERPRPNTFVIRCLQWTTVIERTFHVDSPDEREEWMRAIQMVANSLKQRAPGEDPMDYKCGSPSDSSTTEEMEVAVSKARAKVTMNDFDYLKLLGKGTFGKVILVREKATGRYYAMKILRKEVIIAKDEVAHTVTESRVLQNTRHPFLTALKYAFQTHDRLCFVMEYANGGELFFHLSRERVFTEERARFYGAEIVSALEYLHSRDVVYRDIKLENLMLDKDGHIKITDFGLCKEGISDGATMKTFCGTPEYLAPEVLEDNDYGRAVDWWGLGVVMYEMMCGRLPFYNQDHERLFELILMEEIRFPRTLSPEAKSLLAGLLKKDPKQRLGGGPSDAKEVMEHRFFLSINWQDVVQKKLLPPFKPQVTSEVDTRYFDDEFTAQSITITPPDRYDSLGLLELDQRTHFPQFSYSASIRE
TESK1, sequence (Q15569 whole entry): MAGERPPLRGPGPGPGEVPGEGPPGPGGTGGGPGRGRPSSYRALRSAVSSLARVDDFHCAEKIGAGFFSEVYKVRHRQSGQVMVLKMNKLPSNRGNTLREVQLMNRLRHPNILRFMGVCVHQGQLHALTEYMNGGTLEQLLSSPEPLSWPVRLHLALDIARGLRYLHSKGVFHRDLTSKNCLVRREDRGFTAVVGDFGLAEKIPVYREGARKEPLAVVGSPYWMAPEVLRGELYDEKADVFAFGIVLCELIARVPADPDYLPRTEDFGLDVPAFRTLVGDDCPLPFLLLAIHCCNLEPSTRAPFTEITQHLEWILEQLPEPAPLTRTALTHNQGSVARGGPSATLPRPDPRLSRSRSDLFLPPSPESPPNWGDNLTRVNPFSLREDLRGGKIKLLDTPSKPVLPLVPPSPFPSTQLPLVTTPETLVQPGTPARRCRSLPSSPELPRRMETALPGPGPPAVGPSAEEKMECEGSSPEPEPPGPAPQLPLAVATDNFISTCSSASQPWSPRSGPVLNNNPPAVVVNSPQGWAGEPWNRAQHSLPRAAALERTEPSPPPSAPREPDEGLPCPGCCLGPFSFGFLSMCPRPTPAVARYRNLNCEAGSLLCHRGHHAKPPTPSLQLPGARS
MNK2, sequence (Q9HBH9 whole entry): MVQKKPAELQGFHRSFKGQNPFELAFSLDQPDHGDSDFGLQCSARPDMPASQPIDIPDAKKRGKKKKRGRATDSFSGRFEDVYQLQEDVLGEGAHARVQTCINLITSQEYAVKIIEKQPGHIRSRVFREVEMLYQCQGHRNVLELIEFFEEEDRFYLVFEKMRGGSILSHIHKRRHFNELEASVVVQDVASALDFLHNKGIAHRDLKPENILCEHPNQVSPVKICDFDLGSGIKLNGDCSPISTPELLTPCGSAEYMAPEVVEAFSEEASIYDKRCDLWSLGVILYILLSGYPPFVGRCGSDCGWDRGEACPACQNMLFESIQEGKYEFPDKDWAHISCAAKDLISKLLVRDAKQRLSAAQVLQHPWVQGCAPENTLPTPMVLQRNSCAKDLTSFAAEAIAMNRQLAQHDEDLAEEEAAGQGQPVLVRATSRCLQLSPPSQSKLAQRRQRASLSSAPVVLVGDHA

| IC50 (CDK2) | SMILES | remaining activity at 1 µM (TESK1) | remaining activity at 1 µM (PKBβ) | remaining activity at 1 µM (PDK1) | remaining activity at 1 µM (MNK2) |
| --- | --- | --- | --- | --- | --- |
| 160 nM | CCS(=O)(=O)c1ccc(Nc2nc(OCC3CCCCC3)c3nc[nH]c3n2)cc1 [NU6310, 6-(cyclohexylmethoxy)-N-(4-(ethylsulfonyl)phenyl)-9H-purin-2-amine] |  |  |  |  |
|  | C=CS(=O)(=O)c1ccc(Nc2nc(OCC3CCCCC3)c3nc[nH]c3n2)cc1 [NU6300, 6-(cyclohexylmethoxy)-N-(4-(vinylsulfonyl)phenyl)-9H-purin-2-amine] | 78% | 89% | 29% | 91% |

Reference: article PMC4579270, “Identification and Characterization of an Irreversible Inhibitor of CDK2” (Chemistry & Biology, 2015)
